Measured values reported in the METLIN SMRT retention time set (Domingo-Almenara et al. 2019).

Experiment: gradient 5% acetonitrile 3 min, to 50% in 2 min, to 85% in 15 min, held 3 min, 100 µL/min
Conditions: column: Zorbax Extend-C18 2.1 x 50 mm; eluents: water / acetonitrile, 0.1% formic acid
Procedure, shortened: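 In both positive and negative ionization mode, a quadrupole time-of-flight mass spectrometer coupled to HPLC analyzed pure standards run in mixtures of ~100 molecules. The Zorbax Extend-C18 column (2.1 × 50 mm, 1.8 μm) was operated at 100 μL/min with water and acetonitrile, each containing 0.1% formic acid. The dead volume was 40 μL and the dwell volume 900 μL. Retention time came from adduct peaks that were computationally picked and individually inspected by hand.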

Row | SMILES | RP-LC retention time
1 | Cc1oc(C2CCN(C(=O)Nc3cccc(Cl)c3C)CC2)nc1C(=O)N1CCCC1 | 813 s
2 | CCc1ccc2oc(C(=O)NCC(c3cccs3)N(C)C)cc(=O)c2c1 (stereo not drawn) | 654 s
3 | O=C(Cn1c(=O)oc2ccc(C(=O)N3CCCC3)cc21)N1CCC(Cc2ccccc2)CC1 | 868 s
4 | CCOc1ccccc1C(=O)NCCS(=O)(=O)N1CCN(c2ccccn2)CC1 | 597 s
5 | Cc1ccc(-n2nc3c(N4CCCC(C(=O)NCCN5CCN(C)CC5)C4)nnc(C)c3c2C)cc1 (stereo not drawn) | 567 s
6 | Cc1nc(C(N)=O)nc2ccccc12 | 657 s
7 | Cc1cc(-c2c(C)sc(C)c2S(=O)(=O)Nc2ccc(C)c(Cl)c2)n[nH]1 | 1100 s
8 | Cc1ccc(-c2nc3ccccn3c2Nc2ccc3c(c2)OCCO3)cc1 | 690 s
9 | COc1ccccc1N1CCN(c2cc(SCC(=O)Nc3c(C)cc(C)cc3C)ncn2)CC1 | 1040 s
10 | CCOC(=O)C(C)Sc1nnc(NC(=O)Cc2ccc(OC)cc2)s1 (stereo not drawn) | 806 s
11 | CCC(CC)C(=O)Nc1nc(-c2ccc3c(c2)NC(=O)CO3)c(C)s1 | 910 s
12 | O=C(NCCc1csc(-c2cccs2)n1)C1CCN(S(=O)(=O)Cc2ccccc2)CC1 | 855 s
13 | CCCNC(=O)c1cn(-c2cc(-c3nc(C(C)(C)C)no3)ccn2)cn1 | 934 s
14 | CC(C)Cn1c(=O)c(C(=O)NCc2cccc(F)c2)nc2cccnc21 | 609 s
15 | O=C(Nc1cccc(C(F)(F)F)c1)N1CCC(N2C[C@H]3C[C@H](C2)[C@H]2CCCC(=O)N2C3)CC1 | 653 s
16 | O=C(Cc1cccn1-c1ccc(F)cc1)NCc1ccc(F)cc1 | 922 s
17 | Cc1cc(OCC(=O)N(C)c2ccccc2)nc(N2CCN(c3ccccc3)CC2)n1 | 859 s
18 | Cc1ccc(CNC(=O)CN2CCN(Cc3ccc(F)cc3)C2=O)o1 | 766 s
19 | O=C(NCc1ccc2c(c1)OCO2)c1ccc(-c2cc(N3CCOCC3)ncn2)cc1 | 643 s
20 | COc1ccc(-c2cc3c4nn(CC(=O)Nc5cccc(C)c5C)c(=O)n4ccn3n2)cc1 | 840 s
21 | Cc1ccc(NC(=O)N2CCC(CCNC(=O)C3(c4ccccc4)CC3)CC2)cc1 | 923 s
22 | O=C(NC1CC1)c1ccc(OCC2CCCN2C(=O)c2cc(F)ccc2F)cc1 (stereo not drawn) | 785 s

Row | SMILES | RP-LC retention time
23 | CCCNC(=O)C1CCCN(c2ccc(SCC(=O)NCc3ccccc3Cl)nn2)C1 (stereo not drawn) | 661 s
24 | O=C(NCCc1ccc(Cl)cc1)C(=O)Nc1ccc(F)cc1F | 971 s
25 | CCOc1cc(=O)n2c(c1C(=O)NC1CCCCC1)CCCCC2 | 734 s
26 | CN(Cc1nc2cc(C(=O)N3CCCC3)ccc2n1C)C(=O)Nc1ccc(Cl)cc1 | 654 s
27 | CC(=O)OC[C@@]1(O)C[C@@]23CC[C@@H]4c5ccoc5C=C[C@@]4(C)[C@@H]2CC[C@@H]1C3 | 715 s
28 | COc1cccc(Cn2ccc3ccn(CCN(C)C)c3c2=O)c1 | 639 s
29 | CCCn1cc(-c2ccncc2)cc1C(=O)NCc1ccc(F)cc1 | 680 s
30 | Cc1cc(C)c2c(n1)sc1c(=O)n(CC(=O)Nc3ccc(F)c(F)c3)c(C)nc12 | 910 s
31 | CC1CCN(S(=O)(=O)c2ccc(-c3nnc(C(=O)NCc4ccc5c(c4)OCO5)o3)cc2)CC1 | 1010 s
32 | COc1ccc(OC)c(NC(=O)CN2CC=C(c3cnn(C)c3)CC2)c1 | 597 s
33 | COc1ccc(NC(=O)c2cccs2)c([N+](=O)[O-])c1 | 860 s
34 | Cc1ncoc1C(=O)N1CC(n2cc(COc3ccc(F)cc3)nn2)C1 | 722 s
35 | Cc1cc(=O)n(CC(=O)Nc2cc(F)cc(F)c2)c(N2CCCC2)n1 | 670 s
36 | O=S(=O)(Cc1ccccc1)N1CCC(c2noc(-c3cnccn3)n2)C1 (stereo not drawn) | 797 s
37 | OCCNc1nc(N2CCOCC2)nc2c1cnn2-c1ccc(Cl)cc1 | 824 s
38 | COc1ccc(CCNC(=O)Cn2nc3n(c2=O)CCCC3)cc1OC | 613 s
39 | C=CCN1CCN(C(=O)c2ccc3c(c2)Sc2ncccc2C(=O)N3CC)CC1 | 564 s
40 | O=C(CN1C(=O)CCC1=O)NCC(O)C1CCCCC1 (stereo not drawn) | 597 s
41 | CC(=O)N1CCC(C(=O)NCc2ccc(-c3nc(-c4cccs4)no3)s2)CC1 | 731 s
42 | O=S(=O)(NCC(c1cccnc1)c1c[nH]c2ccccc12)c1ccc(Cl)c(Cl)c1 (stereo not drawn) | 787 s
43 | Cc1cc(C2CCCN2C(=O)NC(C)(C)C)no1 (stereo not drawn) | 752 s
44 | Cc1cc(C)n2c(Nc3cccc(C(F)(F)F)c3)c(-c3ccc(F)cc3)nc2n1 | 829 s

Row | SMILES | RP-LC retention time
45 | O=C(Nc1nc(-c2cccc([N+](=O)[O-])c2)cs1)c1ccc(Cl)cc1Cl | 1060 s
46 | CC(C(=O)NCCN(C)C)C1CCN(C(=O)c2cc3cc(Cl)ccc3[nH]2)CC1 (stereo not drawn) | 649 s
47 | COCCNS(=O)(=O)c1cccc(-c2nc(-c3ccccc3)no2)c1 | 972 s
48 | O=C(NCc1ccco1)C1CCN(Cc2cc3ccccc3n2Cc2ccccc2)CC1 | 747 s
49 | O=C(COc1ccc(F)cc1)N1[C@H]2CC[C@@H]1c1cnc(-c3ccc(F)cc3)nc1C2 | 760 s
50 | O=C(Nc1ccccc1F)NC1CCN(C(=O)C2CC2)C1 (stereo not drawn) | 673 s
51 | CCCS(=O)(=O)N1CC(N(C)Cc2cccnc2)C1 | 559 s
52 | Cc1ccc(NC(=O)N(C)CC2CCOC2)c(Cl)c1 (stereo not drawn) | 766 s
53 | CCCN1C(=O)c2cc(S(=O)(=O)NCc3ccc(C)o3)ccc2Oc2cccnc21 | 995 s
54 | CC1(C(=O)NC2CCCC2)Cn2c(ccc2-c2ccco2)C(=O)N1Cc1cccnc1 (stereo not drawn) | 657 s
55 | O=C(c1ccc(F)cc1F)N1CCN(c2nc(CN3CCCC3)cs2)CC1 | 613 s
56 | CCC1Oc2ccc(C)cc2N(CC(=O)NCCN(C)C)C1=O (stereo not drawn) | 631 s
57 | Cn1cnc2cc(CNC(=O)C3CCCC3)ccc21 | 586 s
58 | Cc1ccc(NC(=O)CSc2nc(N3CCCCC3)nc3ccccc23)cc1F | 789 s
59 | CCCNC(=O)C1CCCN(c2nc3ncn(CC(=O)Nc4ccccc4F)c(=O)c3s2)C1 (stereo not drawn) | 679 s
60 | COc1c2c(c(OC)c3c1c(=O)c1ccccc1n3C)OCO2 | 767 s
61 | CC1CCN(C(=O)c2cc(S(=O)(=O)N3CCC(C(=O)NC4CCCCC4)CC3)cn2C)CC1 | 839 s
62 | Cc1ccc(NS(=O)(=O)c2ccc3c(c2)CCCC(=O)N3)cc1C | 756 s
63 | O=C(O)c1cc(-c2cccs2)n(C2CCS(=O)(=O)C2)n1 (stereo not drawn) | 630 s
64 | O=C(Nc1cccc(-c2ccc(N3CCOCC3)nn2)c1)Nc1cc(F)ccc1F | 738 s
65 | O=C(C1CCN(c2nc3ccc(-c4ccc(F)cc4)nc3s2)CC1)N1CCCC1 | 944 s
66 | COCCCNC(=O)Cn1ccc2c(SCc3ccccc3)nccc21 | 636 s

Row | SMILES | RP-LC retention time
67 | COc1cccc(-c2noc(-c3nn(-c4ccc(Cl)cc4)ccc3=O)n2)c1OC | 896 s
68 | CCc1nnc([C@@H]2CC(F)(F)CN2C(=O)c2nccn2C)o1 | 631 s
69 | COc1ccc(-c2noc(Cn3ncn4nc(-c5ccc(F)cc5)cc4c3=O)n2)cc1OC | 1000 s
70 | Cn1ccc(C(=O)Nc2ccc(Cl)cc2C(=O)c2ccccc2)n1 | 1010 s
71 | O=C1CCCc2cc(S(=O)(=O)N3CCC(C(=O)N4CCN(c5ccccc5)CC4)CC3)ccc2N1 | 754 s
72 | CC1=C(c2ccc(C)cc2)S(=O)(=O)N=C1N1CCC(NC(=O)CCC(C)C)CC1 | 888 s
73 | Cc1ccc(CNC(=O)C2(C)CN(S(=O)(=O)c3ccccc3)CC(=O)N2C2CC2)cc1 (stereo not drawn) | 783 s
74 | Cc1ccc(NC(=O)N2CCc3c(c(-c4nnc(-c5ccc(F)cc5)o4)nn3C)C2)cc1Cl | 1010 s
75 | CCn1c(=O)c(-c2noc(C(=O)N3CCN(c4ccccn4)CC3)n2)nn(-c2ccccc2)c1=O | 691 s
76 | Cc1ccc(C)c(NC(=O)NC2CCN(c3ccccc3)C2=O)c1 (stereo not drawn) | 823 s
77 | CN(C)S(=O)(=O)c1ccc(C(=O)OCc2cc(-c3ccc(Cl)cc3)on2)cc1 | 1090 s
78 | Cc1nn(-c2ccc(-c3noc(C4CC4)n3)cc2)cc1C(=O)Nc1ccc(F)cc1F | 773 s
79 | Cc1ccc(S(=O)(=O)c2cnc(N3CCN(Cc4ccc5c(c4)OCO5)CC3)nc2N)cc1 | 679 s
80 | CC(C)NC(=O)C1CCN(c2nc3ccc(-c4cncnc4)nc3s2)CC1 | 703 s
81 | CCNC(=O)c1ccc(N2CCc3ccccc32)s1 | 824 s
82 | O=S(=O)(NC1CCCC1)c1ccc(-c2nnc(C3CCC3)o2)o1 | 900 s
83 | O=C(CCCn1c(=O)c2cccn2c2ccccc21)N1CCN(c2ccccn2)CC1 | 625 s
84 | Nc1nc(N2CCN(c3ccccc3)CC2)ncc1C(=O)Nc1ccccc1 | 784 s
85 | Cc1noc(C2CN(C(=O)c3cnn(C)c3)CC23CCCC3)n1 (stereo not drawn) | 684 s
86 | Cc1ccc(-c2cc(C(=O)N3CCN(C)CC3)[nH]n2)cc1C | 603 s
87 | COc1ccc(CNC(=O)c2ccc3c(c2)N(C)C(=O)c2ccccc2O3)cc1 | 863 s
88 | CS(=O)(=O)N1CCC(C(=O)NCC2CCN(C(=O)Nc3ccc(F)cc3)CC2)CC1 | 622 s
